Source: ChEMBL document CHEMBL1147306, “Studies on inhibitors of skin tumor promotion, VI. Inhibitory effects of quinones on Epstein-Barr virus activation” (J Nat Prod, 1989)
The source made the active and inactive calls. The calls are words filed in the database; no cut-off is given here.

What was measured:
Raji [1] = experiment: Inhibition of TPA-induced EBV-early antigen activation in human Raji cells at 500 molar ratio after 48 hrs by indirect immunofluorescence technique relative to TPA; format: cell-based; conditions: human gammaherpesvirus 4
Raji [2] = experiment: Inhibition of TPA-induced EBV-early antigen activation in human Raji cells at 100 molar ratio after 48 hrs by indirect immunofluorescence technique relative to TPA; format: cell-based; conditions: human gammaherpesvirus 4
Raji [3] = experiment: Inhibition of TPA-induced EBV-early antigen activation in human Raji cells at 10 molar ratio after 48 hrs by indirect immunofluorescence technique relative to TPA; format: cell-based; conditions: human gammaherpesvirus 4
[4] = Cytotoxicity against human Raji cells assessed as cell viability at 1000 molar ratio; format: cell-based; conditions: read-out: Activity
[5] = Cytotoxicity against human Raji cells assessed as cell viability at 500 molar ratio; format: cell-based; conditions: read-out: Activity
[6] = Cytotoxicity against human Raji cells assessed as cell viability at 100 molar ratio; format: cell-based; conditions: read-out: Activity
[7] = Cytotoxicity against human Raji cells assessed as cell viability at 10 molar ratio; format: cell-based; conditions: read-out: Activity
Mus musculus = species on record: Mus musculus; experiment: Displacement of [3H]TPA from TPA receptor in ICR mouse dorsal epidermis

Structure (SMILES)	EBV-EA activation % of TPA control (Raji [1]) [%]	EBV-EA activation % of TPA control (Raji [2]) [%]	EBV-EA activation % of TPA control (Raji [3]) [%]	viability at 1000 molar ratio [4] [%]	viability at 500 molar ratio [5] [%]	viability at 100 molar ratio [6] [%]	viability at 10 molar ratio [7] [%]	Activity (Mus musculus)
Cc1ccnc2c1C(=O)c1c(O)ccc(O)c1C2=O	23.1	52.1	88.6	60	60	> 80	> 80	inactive
CC(C)=CC[C@@H](O)C1=CC(=O)c2c(O)ccc(O)c2C1=O [SHIKONIN]	0	15.8	31.5	0	10	50	> 80	inactive
COc1cccc2c1C(=O)c1ccc3c(c1C2=O)OCO3	32.7	33	100	> 80	> 80	> 80	> 80	inactive
Cc1ccc2c(n1)C(=O)c1c(O)ccc(O)c1C2=O	13.5	43.8	86	10	60	> 80	> 80	inactive
O=C1c2ccccc2C(=O)c2occc21	0	0	59.4	0	10	10	70	
Cc1ccnc2c1C(=O)c1ccccc1-2 [ONYCHINE]	94.1	100	100	70	> 80	> 80	> 80	
O=C1C=CC(=O)c2cc(O)ccc21	0	67.2	92.3	10	60	60	> 80	
O=C1C=CC(=O)c2c(O)cccc21 [JUGLONE]	13.1	97.8	100	40	60	> 80	> 80	
CC(=O)c1cc2c(o1)C(=O)c1ccccc1C2=O [NAPABUCASIN]	0	0	32.7	0	0	70	> 80	inactive
O=C1c2ccccc2C(=O)c2c(O)c(O)cc(O)c21 [PURPURIN]	54.3	100	100	70	> 80	> 80	> 80	
COc1ccc(OC)c2c1C(=O)c1nccc(C)c1C2=O	100	100	100	70	> 80	> 80	> 80	
COCc1c(O)cc2c(c1O)C(=O)c1cccc(O)c1C2=O	21	51.8	100	> 80	> 80	> 80	> 80	
Cc1ccnc2c1C(=O)c1ccccc1C2=O [CLEISTOPHOLINE]	48.7	77.5	100	70	> 80	> 80	> 80	
O=C1c2ccccc2C(=O)c2sccc21 [THIOPHENONAPHTHOQUINONE]	0	52.8	81.4	0	0	70	> 80	
Cc1ccc2c(n1)C(=O)c1c(O)cccc1C2=O	17.3	56.8	92.4	10	50	> 80	> 80	
CN(C)C1=CC(=O)c2ccccc2C1=O	89.2	92.5	100	> 80	> 80	> 80	> 80	
Cc1ccnc2c1C(=O)c1cc(O)ccc1C2=O	73.9	74.4	100	60	60	> 80	> 80	
CCCCCCCCCCCCCC(=O)O[C@@H]1[C@@H](C)[C@@]2(O)[C@@H](C=C(CO)C[C@]3(O)C(=O)C(C)=C[C@@H]23)[C@@H]2C(C)(C)[C@]12OC(C)=O								Active
Cc1ccnc2c1C(O)c1ccccc1-2 (stereo not drawn)	100	100	100	> 80	> 80	> 80	> 80	
O=C1c2ccc3c(c2C(=O)c2cccc(O)c21)OCO3	36.5	53.8	79.5	> 80	> 80	> 80	> 80	inactive
CC1C=CNC2=C1C(=O)c1c(O)ccc(O)c1C2=O (stereo not drawn)	20.4	100	100	10	70	> 80	> 80	
Cc1cnc2c(c1)C(=O)c1cccc(O)c1C2=O	15.8	72.4	100	30	> 80	60	> 80	
COc1cccc2c1C(=O)c1ncc(C)cc1C2=O	83	100	100	> 80	> 80	> 80	> 80	
COc1c(CO)c(O)cc2c1C(=O)c1ccccc1C2=O [DAMNACANTHOL]	91.2	100	100	70	> 80	> 80	> 80	
CN(C)C1=CC(=O)c2c(O)ccc(O)c2C1=O	28.2	87.2	100	50	> 80	> 80	> 80	
O=C1c2ccccc2C(=O)c2c1ccc(O)c2O [ATHRAQUINONES A]	92.4	100	100	60	> 80	> 80	> 80	
O=C1c2cccc(O)c2C(=O)c2c(O)cccc21 [DANTHRON]	61.9	71.2	94.2	> 80	> 80	> 80	> 80	
O=C1c2ccccc2C(=O)c2c(O)ccc(O)c21 [QUINIZARIN]	100	100	100	70	> 80	> 80	> 80	
O=C1c2cccc(O)c2C(=O)c2cccc(O)c21 [ANTHRARUFIN]	70.1	92.3	100	70	> 80	> 80	> 80	
